Source: article PMC3293179 (MedChemComm, 2011)

Tests used:
LHR = LHR (Homo sapiens, UniProt P22888); assay: Selectivity test against LHR; type: cell-based
FSHR = target: T1, FSHR (Homo sapiens, UniProt P23945); assay: Selectivity test against FSHR; type: cell-based
T1 sequence (P23945 18-695): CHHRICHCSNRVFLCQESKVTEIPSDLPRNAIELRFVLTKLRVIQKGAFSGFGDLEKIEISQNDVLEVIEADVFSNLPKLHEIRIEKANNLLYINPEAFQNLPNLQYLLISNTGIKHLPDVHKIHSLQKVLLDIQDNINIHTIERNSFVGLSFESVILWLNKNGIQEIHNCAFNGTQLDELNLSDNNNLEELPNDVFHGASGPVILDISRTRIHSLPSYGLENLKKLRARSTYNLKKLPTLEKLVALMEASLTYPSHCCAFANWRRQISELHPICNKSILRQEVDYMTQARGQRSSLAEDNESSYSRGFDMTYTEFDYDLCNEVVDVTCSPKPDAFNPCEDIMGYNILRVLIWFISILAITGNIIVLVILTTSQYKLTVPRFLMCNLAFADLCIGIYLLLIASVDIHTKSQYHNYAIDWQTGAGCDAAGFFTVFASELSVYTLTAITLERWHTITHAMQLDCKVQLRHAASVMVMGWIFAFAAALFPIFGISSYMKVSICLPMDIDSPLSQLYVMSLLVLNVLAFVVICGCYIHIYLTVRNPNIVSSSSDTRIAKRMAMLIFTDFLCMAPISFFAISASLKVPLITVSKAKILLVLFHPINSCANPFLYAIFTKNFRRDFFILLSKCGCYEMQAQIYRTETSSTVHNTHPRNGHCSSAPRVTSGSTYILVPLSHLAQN

[1] = degradation at pH = 2; cited from earlier work
TSHR [2] = conditions: mice; cited from earlier work
TSHR [3] = target: T2, TSHR (Homo sapiens, UniProt P16473); assay: ELISA cAMP assay in HEK-EM293 cells expressing TSHR; type: cell-based; conditions: for fold more potent than the hit compound 1a: potency ratio versus 1a
TSHR [4] = target: T2, TSHR; conditions: cited from earlier work

T2 sequence (P16473 21-764): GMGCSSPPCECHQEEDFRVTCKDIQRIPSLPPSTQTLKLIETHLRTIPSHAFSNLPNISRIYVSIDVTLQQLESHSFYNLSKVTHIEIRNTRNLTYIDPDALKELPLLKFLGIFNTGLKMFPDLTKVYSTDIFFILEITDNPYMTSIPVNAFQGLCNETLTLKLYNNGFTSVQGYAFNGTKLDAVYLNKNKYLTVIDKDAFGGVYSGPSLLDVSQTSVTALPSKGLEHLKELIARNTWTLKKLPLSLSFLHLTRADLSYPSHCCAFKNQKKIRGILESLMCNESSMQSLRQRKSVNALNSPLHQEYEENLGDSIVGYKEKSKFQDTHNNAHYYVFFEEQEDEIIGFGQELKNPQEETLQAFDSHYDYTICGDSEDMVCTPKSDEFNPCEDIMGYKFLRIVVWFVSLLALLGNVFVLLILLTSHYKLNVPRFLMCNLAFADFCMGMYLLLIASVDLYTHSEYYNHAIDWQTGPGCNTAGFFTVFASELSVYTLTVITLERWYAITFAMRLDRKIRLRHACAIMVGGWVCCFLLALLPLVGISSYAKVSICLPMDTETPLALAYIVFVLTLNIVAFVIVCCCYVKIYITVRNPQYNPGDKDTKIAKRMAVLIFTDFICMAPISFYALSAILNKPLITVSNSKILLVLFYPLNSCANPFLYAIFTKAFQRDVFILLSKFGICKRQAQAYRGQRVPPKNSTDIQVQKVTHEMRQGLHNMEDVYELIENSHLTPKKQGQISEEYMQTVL
LHR, sequence (P22888 27-699): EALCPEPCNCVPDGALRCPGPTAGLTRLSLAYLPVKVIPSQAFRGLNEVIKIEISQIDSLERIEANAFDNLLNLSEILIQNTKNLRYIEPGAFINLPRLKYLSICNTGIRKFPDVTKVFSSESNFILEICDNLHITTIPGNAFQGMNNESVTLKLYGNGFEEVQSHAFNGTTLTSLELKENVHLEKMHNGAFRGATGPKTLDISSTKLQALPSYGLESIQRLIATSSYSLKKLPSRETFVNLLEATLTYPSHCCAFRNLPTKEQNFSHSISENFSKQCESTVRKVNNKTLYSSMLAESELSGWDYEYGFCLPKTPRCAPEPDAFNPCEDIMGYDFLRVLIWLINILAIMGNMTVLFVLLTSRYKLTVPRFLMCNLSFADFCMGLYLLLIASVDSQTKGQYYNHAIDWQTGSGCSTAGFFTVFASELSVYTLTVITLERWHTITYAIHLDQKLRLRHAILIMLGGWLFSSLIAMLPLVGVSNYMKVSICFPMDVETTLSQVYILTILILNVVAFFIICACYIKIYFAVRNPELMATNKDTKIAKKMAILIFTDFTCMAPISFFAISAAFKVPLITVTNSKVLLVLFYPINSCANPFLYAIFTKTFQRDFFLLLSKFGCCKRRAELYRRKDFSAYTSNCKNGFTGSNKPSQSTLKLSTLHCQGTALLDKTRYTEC

SMILES: COc1ccc(C2Nc3ccccc3C(=O)N2Cc2ccco2)cc1COc1ccc(NC(C)=O)cc1 (stereo not shown) [Compound 1a]
- LHR efficacy (LHR): no detectable
- FSHR efficacy (FSHR): no detectable

SMILES: COc1ccc(C2Nc3cccc(O)c3C(=O)N2Cc2ccccc2)cc1COc1ccc(NC(C)=O)cc1 (stereo not shown) [Compound 1b]
- half-life [1]: 3 h
- in vivo efficacy (TSHR [2]): in vivo efficacy in mice
- Emax (TSHR [3]; HEK-EM293): 100%
- fold improvement in potency (TSHR [3]; R2 OH versus H (1g) or F (1e)): 3 fold
- fold more potent than the hit compound 1a (TSHR [3]): at least 10 fold
- TSHR agonism (type) (TSHR [4]): full TSHR agonist

SMILES: COc1ccc(C2Nc3ccccc3C(=O)N2Cc2ccccc2)cc1COc1ccc(NC(C)=O)cc1 (stereo not shown) [Compound 1g]
- fold more potent than the hit compound 1a (TSHR [3]): 4 fold

SMILES: COc1ccc(C2Nc3ccccc3C(=O)N2CCc2ccccc2)cc1COc1ccc(NC(C)=O)cc1 (stereo not shown) [Compound 1m]
- fold reduction in potency (TSHR [3]; versus benzyl analogue 1g): 2 fold

SMILES: COc1ccc(C2Nc3ccccc3C(=O)N2Cc2ccccc2)cc1CSc1ccc(NC(C)=O)cc1 (stereo not shown) [Compound 8a]
- fold more potent than the hit compound 1a (TSHR [3]): at least 10 fold

SMILES: COc1ccc(C2Nc3cccc(O)c3C(=O)N2Cc2ccccc2)cc1CSc1ccc(NC(C)=O)cc1 (stereo not shown) [Compound 8b]
- selectivity for TSHR over LHR (LHR): maintain selectivity for TSHR over LHR and FSHR
- selectivity for TSHR over FSHR (FSHR): maintain selectivity for TSHR over LHR and FSHR
- fold increase in potency (TSHR [3]; Y oxygen replaced with sulfur (8b vs 1b, 8a vs 1g)): ≤ 5 fold

SMILES: COc1ccc(-c2nc3cccc(O)c3c(=O)n2Cc2ccccc2)cc1COc1ccc(NC(C)=O)cc1 [Compound 9c]
- selectivity for TSHR over LHR (LHR): selective for TSHR over LHR and FSHR
- selectivity for TSHR over FSHR (FSHR): selective for TSHR over LHR and FSHR
